The values that follow come from paper PMC3253112, “Functional Evolution of Duplicated Odorant-Binding Protein Genes, Obp57d and Obp57e, in Drosophila” (PLoS ONE, 2012).

The structures appear in SMILES notation. Residue numbers refer to the chain shown, from its start.

Test in all cases: intrinsic tryptophan fluorescence quenching
Type in all cases: binding
Settings in all cases: 20 mM sodium acetate pH 5.0, 25 °C, 1 µM OBP; Q = ligand concentration at which 3% of OBP is bound

The target in test [1] is T1, Dpse\OBP57de (Drosophila pseudoobscura, UniProt A0A6I8UUP3).
T1 construct: gene LOC4804642; mature protein, signal peptide removed, untagged, Met added; primer encodes N-terminus HSNTAIFN
T1 sequence (A0A6I8UUP3 20-133): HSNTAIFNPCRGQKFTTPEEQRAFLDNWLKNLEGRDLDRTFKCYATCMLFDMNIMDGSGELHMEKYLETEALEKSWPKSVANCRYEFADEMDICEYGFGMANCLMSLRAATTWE

The target in test [2] is T2, Dmel\OBP57e (Drosophila melanogaster, UniProt Q9V938).
T2 construct: mature protein, signal peptide removed, untagged; cloning primer encodes NTSVFNP
T2 sequence (Q9V938 21-136): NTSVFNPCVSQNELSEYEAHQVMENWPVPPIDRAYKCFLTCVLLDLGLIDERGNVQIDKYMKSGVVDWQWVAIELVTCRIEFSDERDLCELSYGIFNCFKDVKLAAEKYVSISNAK

Test [3] deals with T3, Dmel\OBP57d (Drosophila melanogaster, UniProt Q8MMF9, DEL101-101).
T3 construct: mature protein, signal peptide removed, untagged, Met added; primer encodes N-terminus NDPCPHNQGID, C-terminus LTKS
T3 sequence (Q8MMF9 with tags, fused parts or gaps DEL101-101): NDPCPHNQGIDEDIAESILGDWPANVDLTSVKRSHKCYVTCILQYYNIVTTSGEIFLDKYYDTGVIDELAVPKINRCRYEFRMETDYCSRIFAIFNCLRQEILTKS

The target of test [4] is T4, Dmel\OBP57d (Drosophila melanogaster, UniProt Q8MMF9, C33A).
T4 construct: mature protein, signal peptide removed, untagged, Met added; primer encodes N-terminus NDPCPHNQGID, C-terminus LTKS
T4 sequence (Q8MMF9 30-136 C33A): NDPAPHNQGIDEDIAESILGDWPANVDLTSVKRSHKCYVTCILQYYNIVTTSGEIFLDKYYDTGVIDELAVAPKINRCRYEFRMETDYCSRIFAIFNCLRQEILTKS

For test [5], the target named is T5, Dmel\OBP57d (Drosophila melanogaster, UniProt Q8MMF9, P52A).
T5 construct: mature protein, signal peptide removed, untagged, Met added; primer encodes N-terminus NDPCPHNQGID, C-terminus LTKS
T5 sequence (Q8MMF9 30-136 P52A): T4 sequence (Q8MMF9 30-136 C33A) with A4C, P23A

The target in test [6] is T6, Dmel\OBP57d (Drosophila melanogaster, UniProt Q8MMF9).
T6 construct: mature protein, signal peptide removed, untagged, Met added; primer encodes N-terminus NDPCPHNQGID, C-terminus LTKS
T6 sequence (Q8MMF9 30-136): T4 sequence (Q8MMF9 30-136 C33A) with A4C

The target in test [7] is T7, Dmel\OBP57d (Drosophila melanogaster, UniProt Q8MMF9, Y89A).
T7 construct: mature protein, signal peptide removed, untagged, Met added; primer encodes N-terminus NDPCPHNQGID, C-terminus LTKS
T7 sequence (Q8MMF9 30-136 Y89A): T4 sequence (Q8MMF9 30-136 C33A) with A4C, Y60A

For test [8], the target named is T8, Dmel\OBP57d (Drosophila melanogaster, UniProt Q8MMF9, L133A).
T8 construct: mature protein, signal peptide removed, untagged, Met added; primer encodes N-terminus NDPCPHNQGID, C-terminus LTKS
T8 sequence (Q8MMF9 30-136 L133A): T4 sequence (Q8MMF9 30-136 C33A) with A4C, L104A

In test [9] the target is T9, Dmel\OBP57d (Drosophila melanogaster, UniProt Q8MMF9, D96A).
T9 construct: mature protein, signal peptide removed, untagged, Met added; primer encodes N-terminus NDPCPHNQGID, C-terminus LTKS
T9 sequence (Q8MMF9 30-136 D96A): T4 sequence (Q8MMF9 30-136 C33A) with A4C, D67A

With `CCCCCCCCCCCC(=O)O` [C12, C12 fatty acid], the “Q (quenching value)” value is “The binding affinity of Dmel\OBP57e and Dpse\OBP57de to the same set of compounds was examined” in [1]; “particularly obvious in the affinity to C10–C13 fatty acids and 1-tridecanol” in [2].
`CCCCCCCCCCC(=O)O` [C11, C11 fatty acid]: the “Q (quenching value)” value in [2] was “particularly obvious in the affinity to C10–C13 fatty acids and 1-tridecanol”.
Same read-out and setting: the entry for `CCCCCCCCCC(=O)O` [C10, decanoic acid] is “particularly obvious in the affinity to C10–C13 fatty acids and 1-tridecanol”.
Turning to `CCCCCCCCCCCCC(=O)O` [C13, tridecanoic acid], the “Q (quenching value)” value in test [3] was “none showed a complete loss of interaction with ligands”; in [4], “none showed a complete loss of interaction with ligands”; in [5], “none showed a complete loss of interaction with ligands”; in [6] it was “the strongest interaction was observed with the longer chain fatty acid (tridecanoic acid: C13)”; in test [7], “none showed a complete loss of interaction with ligands”; in [2], “Dmel\OBP57e also showed higher affinity than Dpse\OBP57de, not only to tridecanoic acid”. Besides, the “Q (quenching value)” value in [8] and in test [9] was “none showed a complete loss of interaction with ligands” in each case.
